Some test systems named below: 786-0; SNB-19; RPMI-8226; COLO 205; EKVX; CCRF-CEM; MDA-MB-231; DU-145; SW-620; OVCAR-3; IGROV-1; MOLT-4; BT-549; HOP-92; HL-60; HT-29; HCT-15; SN12C; SF-268; UACC-62.
Assay in all cases: NCI tumour cell line growth inhibition, 48 h

Each structure is given as a SMILES string.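 How tested: cells in 96-well plates exposed to compound for 48 hours at five concentrations. GI50: concentration for 50% inhibition of growth.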 The source made the active and inactive calls. Rule as the data show it: active = GI50 up to about 1.1 µM and inactive = higher. A value given as a limit tells only on which side of the number the result lay.

With `CCCc1c(O)nc2ccccc2c1O`, the GI50 in the test on 786-0, in the test with SNB-19, in the test with RPMI-8226, with COLO 205, in the test with EKVX and in the test with CCRF-CEM was > 100 µM (inactive) each time. Also, the GI50 with MDA-MB-231, with DU-145, in the test on SW-620, in the test with OVCAR-3, in the test with IGROV-1 and in the test on MOLT-4 was > 100 µM (inactive) throughout. Also, the GI50 was > 100 µM (inactive) in the test with BT-549; > 100 µM (inactive) in the test on HOP-92; > 100 µM (inactive) in the test with HL-60; > 100 µM (inactive) in the test on HT-29; above 100 µM with HCT-15; > 100 µM (inactive) in the test on SN12C.
With `Cn1c(=O)cc(N2CCCC2)[nH]c1=O`, the GI50 in the test with 786-0, in the test on SNB-19, with RPMI-8226, in the test on COLO 205, in the test with EKVX and in the test on CCRF-CEM was > 100 µM (inactive) each time. In addition, the GI50 in the test on MDA-MB-231, in the test on DU-145, with SW-620, in the test with IGROV-1, in the test on MOLT-4 and in the test on BT-549 was > 100 µM (inactive) throughout. Moreover, the GI50 in the test with HOP-92 is > 100 µM (inactive); in the test with HL-60, > 100 µM (inactive); with HT-29 it was > 100 µM (inactive); in the test on SF-268, 74.1 µM (inactive); in the test on HCT-15, above 100 µM; with SN12C it was > 100 µM (inactive).
Take `O=c1c(Cc2c(O)ccc3ccccc23)nnc2sc(-c3nn4c(=O)c(Cc5c(O)ccc6ccccc56)nnc4s3)nn12`: the GI50 in the test with 786-0 is 14.8 µM (inactive); in the test with SNB-19, 38.5 µM (inactive); in the test with RPMI-8226 it was > 100 µM (inactive); in the test with EKVX it was 29.2 µM (inactive); with CCRF-CEM it was 30.5 µM (inactive); in the test with MDA-MB-231 it was 32.6 µM (inactive). Besides, the GI50 in the test on DU-145 is > 100 µM (inactive); in the test on SW-620, > 100 µM (inactive); with OVCAR-3, > 100 µM (inactive); in the test on IGROV-1 it was > 100 µM (inactive); in the test on MOLT-4 it was > 10 µM (inactive); in the test with BT-549, 25.4 µM (inactive). Besides, the GI50 in the test with HOP-92 was 38.1 µM (inactive); in the test with HL-60, 30.8 µM (inactive); with HT-29 it was > 100 µM (inactive); with SF-268, 8.63 µM (inactive); in the test with UACC-62 it was 29 µM (inactive); in the test with HCT-15, above 100 µM. Further, the GI50 in the test on SN12C was > 100 µM (inactive).
As for `CC[C@@H]1CC[C@@H]2[C@H](CC[C@]3(C)[C@@H](OS(=O)(=O)c4ccc(C)cc4)CC[C@@H]23)[C@H]1CO`, the GI50 in the test with 786-0 was > 100 µM (inactive); in the test on SNB-19, > 100 µM (inactive); in the test with RPMI-8226, 17 µM (inactive); in the test on COLO 205 it was 12.4 µM (inactive); in the test on EKVX it was 12.2 µM (inactive); in the test on CCRF-CEM, > 100 µM (inactive). Further, the GI50 with MDA-MB-231, in the test on DU-145, in the test on SW-620, in the test on OVCAR-3, in the test on IGROV-1 and in the test with MOLT-4 was > 100 µM (inactive) each time. Further, the GI50 in the test with BT-549 was > 100 µM (inactive); with HOP-92, > 100 µM (inactive); with HL-60, 17.8 µM (inactive); in the test on HT-29 it was 27.3 µM (inactive); in the test with SF-268, > 100 µM (inactive); in the test on HCT-15, 82.4 µM. In the test on SN12C, the GI50 is 78.5 µM (inactive).
Consider `O=c1[nH]nc(Nc2ccc(Cl)cc2)c2nnn(-c3ccc([N+](=O)[O-])cc3)c12`, for which the GI50 in the test on 786-0 is 17.1 µM (inactive); in the test on SNB-19, 30.9 µM (inactive); in the test on RPMI-8226, 10.7 µM (inactive); in the test with COLO 205 it was 13.3 µM (inactive); with EKVX, 30.6 µM (inactive); in the test on CCRF-CEM, 7.98 µM (inactive). Also, the GI50 is 42.4 µM (inactive) in the test with MDA-MB-231; 12.1 µM (inactive) in the test with DU-145; 30.9 µM (inactive) in the test on SW-620; 31.6 µM (inactive) in the test on IGROV-1; 8.63 µM (inactive) in the test on MOLT-4; 19.2 µM (inactive) in the test with BT-549. Besides, the GI50 in the test with HOP-92 was 14.5 µM (inactive); in the test on HL-60, 98.6 µM (inactive); in the test on HT-29, 25.4 µM (inactive); in the test with SF-268 it was 24.3 µM (inactive); with HCT-15, 14.4 µM; with SN12C, 26.9 µM (inactive).
Consider `CSC(=S)CC(O)[C@@H]1CC2c3ccccc3C1c1ccccc12` (some centres undefined), for which the GI50 with 786-0 was 18 µM (inactive); in the test on SNB-19 it was 11.2 µM (inactive); in the test on RPMI-8226, 3.11 µM (inactive); with COLO 205, 18.1 µM (inactive); with CCRF-CEM it was 1.95 µM (inactive); with MDA-MB-231, 23.8 µM (inactive). The GI50 was 15.2 µM (inactive) with DU-145; 4.81 µM (inactive) with SW-620; 8.51 µM (inactive) with OVCAR-3; 11.8 µM (inactive) with IGROV-1; 1.49 µM (inactive) in the test on MOLT-4; 13.2 µM (inactive) in the test on BT-549. The GI50 was 17.4 µM (inactive) with HOP-92; 2.54 µM (inactive) with HL-60; 4.33 µM (inactive) in the test with HT-29; 15.4 µM (inactive) in the test with SF-268; 12.1 µM (inactive) in the test on UACC-62; 9.73 µM in the test with HCT-15. In addition, the GI50 with SN12C is 18.7 µM (inactive).
With `CC(C)CC1c2[nH]c3ccccc3c2C[C@H]2C(=O)NC(COC(C)(C)C)C(=O)N12` (some centres undefined), the GI50 in the test with 786-0 was 32.8 µM (inactive); in the test with SNB-19, 33.9 µM (inactive); in the test with RPMI-8226, 23.9 µM (inactive); in the test on COLO 205, 20.4 µM (inactive); in the test with EKVX it was 24.9 µM (inactive); in the test on MDA-MB-231, 18.7 µM (inactive). Also, the GI50 in the test on DU-145 is 34.5 µM (inactive); in the test on SW-620, 31 µM (inactive); in the test with OVCAR-3 it was 3.05 µM (inactive); in the test with IGROV-1 it was 23.3 µM (inactive); in the test on MOLT-4, 22.2 µM (inactive); in the test with BT-549, 23.6 µM (inactive). In addition, the GI50 is 31.8 µM (inactive) in the test with HOP-92; 26.4 µM (inactive) in the test with HL-60; 20.9 µM (inactive) in the test on HT-29; 23.6 µM (inactive) in the test on SF-268; 18.2 µM (inactive) in the test on UACC-62; 26.9 µM with HCT-15. The GI50 with SN12C is 21.2 µM (inactive).
On to `CCCCCCCCCCCCCCCCOP(=O)([O-])OCC[N+](C)(C)C` [MILTEFOSINE], for which the GI50 was 9.55 µM (inactive) in the test with 786-0; 17.7 µM (inactive) in the test on SNB-19; 6.1 µM (inactive) with RPMI-8226; 5.58 µM (inactive) with COLO 205; 27 µM (inactive) in the test on EKVX; 21.8 µM (inactive) in the test with MDA-MB-231. Also, the GI50 with DU-145 is 19.4 µM (inactive); in the test with SW-620 it was 20.8 µM (inactive); with OVCAR-3, 23.9 µM (inactive); in the test with IGROV-1, 2.77 µM (inactive); in the test on MOLT-4, 8.73 µM (inactive); in the test on BT-549, 5.35 µM (inactive). Besides, the GI50 with HOP-92 is 2.68 µM (inactive); in the test on HL-60, 4.74 µM (inactive); in the test with HT-29, 7.8 µM (inactive); in the test with SF-268, 22.1 µM (inactive); in the test on UACC-62 it was 20.2 µM (inactive); with HCT-15, 10.5 µM. In the test with SN12C, the GI50 was 16.1 µM (inactive).

The values are drawn from ChEMBL document CHEMBL1201862, “PubChem BioAssay data set” (2004).
